According to PubChem BioAssay (NCI):
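Dose response: 5 concentrations. Exposure: 48 h. Format: 96-well plates. Endpoint: linear interpolation; highest concentration if not reached. Here, GI50 denotes the concentration required for 50% inhibition of growth. Definition used: TGI = concentration required for complete inhibition of growth.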

How the values were obtained:
Test in all cases: NCI anticancer screen, dose series, 48 h
[1] = test system: NCI/ADR-RES ovarian
[2] = test system: ACHN renal
[3] = test system: HT29 colon
[4] = test system: UACC-257 melanoma
[5] = test system: NCI-H522 lung
[6] = test system: DU-145 prostate
[7] = test system: MDA-MB-435
[8] = test system: A498 renal
[9] = test system: LXFL 529 NSCLC
[10] = test system: DMS 114 small cell lung

Compound	GI50 [1] [µM]	TGI [1] [µM]	GI50 [2] [µM]	TGI [2] [µM]	GI50 [3] [µM]	TGI [3] [µM]	GI50 [4] [µM]	TGI [4] [µM]	GI50 [5] [µM]	TGI [5] [µM]	GI50 [6] [µM]	TGI [6] [µM]	GI50 [7] [µM]	TGI [7] [µM]	GI50 [8] [µM]	TGI [8] [µM]	TGI [9] [µM]	TGI [10] [µM]
C=CC1CC12C(=O)C1OC2(C)C2C(=O)c3c(O)ccc(O)c3C(=O)C12 (configuration not stated)	3.76	12.1	1.77	4.37	4.03	16	3.75	11.2	6.23	16.8	3.91	13	4.44	11.1	3.89	13.4	–	–
O=C(N/N=C/c1ccccc1O)C(=O)Nc1ccc(F)cc1	3	> 100	3.02	> 100	8.86	> 100	2.85	15	3.01	52	7.14	> 100	8.4	> 100	83.4	> 100	–	–
CC(C)(C)C(=O)ON1N=NC2C3CC(OCc4ccccc4)(OCc4ccccc4)C(O3)C21 (configuration not stated)	–	–	–	91.5	–	47.9	–	29.2	–	–	–	–	–	–	–	> 100	25.8	–
O=C1CN(C(=O)c2ccccc2)Cc2[nH]c3ccccc3c21	–	–	–	> 100	–	> 100	–	> 100	–	> 100	–	–	–	–	–	–	> 100	> 100
Cc1ccc2c(c1)NC(=O)CC(c1ccccc1)=N2	–	> 100	–	> 100	–	> 100	–	> 100	–	> 100	–	> 100	–	> 100	–	> 100	–	–
COc1ccc(/C=C/C(=O)Oc2cc(O)cc(O)c2)cc1	–	> 100	–	> 100	–	> 100	–	> 100	–	> 100	–	> 100	–	> 100	–	> 100	–	–
CC(C)NC(=O)OCc1c(COC(=O)NC(C)C)c(-c2ccc(Cl)cc2)n2c1CCC2	3.05	16.8	1.34	9.19	4.02	26.4	4.16	29.4	1.77	5.66	2.1	7.18	5.04	19.8	1.92	4.46	–	–
Fc1ccc(C2SCc3nc4ccccc4n32)cc1 (configuration not stated)	–	–	–	> 100	–	> 100	–	–	–	70.9	–	–	–	–	–	–	> 100	> 100
COc1ccccc1C#Cc1ccccc1C#CCCCCCC#Cc1ccccc1C#Cc1ccccc1OC	78.6	> 100	> 100	> 100	24.6	> 100	> 100	> 100	40.3	> 100	> 100	> 100	83.8	> 100	> 100	> 100	–	–
O=C(c1ccco1)c1c(C(F)(F)F)n([O-])c2ccccc2[n+]1=O	0.879	12.7	0.506	4.21	4.2	50	4.32	14.7	0.468	1.98	0.367	0.969	1.85	17.5	1.57	8.27	–	–
CCCCCCCCCCCCSC(=N)N	10.5	26.3	3.89	15.9	2.2	5.73	13.8	27.3	5.21	21.6	8.98	23	3.9	15.3	15.3	31.4	–	–
CCN(c1ccc(Br)cc1)c1c(Br)c(=O)nc2ccccn12	–	–	–	> 100	–	> 100	–	–	–	> 100	–	–	–	–	–	> 100	> 100	> 100
O=C1C(=O)N(c2ccc(Cl)cc2Cl)C(=O)C(=O)C1c1nc2ccccc2o1	–	–	–	> 100	–	> 100	–	> 100	–	> 100	–	–	–	–	–	> 100	> 100	–
Cc1cc(Cc2cc(C)cc(C(C)(C)C)c2O)c(O)c(C(C)(C)C)c1	10.1	21.8	4.59	15.4	4.58	15.6	9.55	21.8	4.16	14.6	4.9	16.6	7.82	22.2	12.9	25.5	–	–
O=C(CC(=O)N1N=C(N2c3ccccc3Sc3ccccc32)CC1c1ccccc1)Nc1ccc(Cl)cc1 (configuration not stated)	–	–	–	> 100	–	> 100	–	> 100	–	–	–	–	–	–	–	> 100	> 100	> 100
CC(=O)O/N=C1/C(c2c(O)[nH]c3cc(Br)ccc23)=Nc2ccccc21	1.73	4.59	0.707	2.18	1.84	3.65	2.26	4.38	1.56	3.68	1.44	3.2	1.63	3.2	0.429	1.2	–	–
NC(N)=NNC(=O)CCCCCCCC(=O)NN=C(N)N	–	–	–	> 100	–	> 100	–	> 100	–	–	–	–	–	–	–	> 100	> 100	> 100
O=C(OCC1CO1)c1cccs1 (configuration not stated)	–	–	–	> 100	–	> 100	–	> 100	–	36.9	–	–	–	–	–	–	> 100	> 100
NC1=NC(c2ccc(Cl)cc2)C2=C(N1)/C(=C/c1ccc(Cl)cc1)CCC2 (configuration not stated)	12.2	> 100	18	> 66.2	3.14	9.78	7.14	28.1	15.7	36.9	7.91	29.6	2.87	12	2.67	12.6	–	–
COc1ccc2c(c1)C(=O)/C(=C/c1ncc([N+](=O)[O-])n1C)O2	0.391	6.47	0.204	0.596	0.244	0.78	1.41	6.82	0.192	0.449	0.868	2.98	0.161	0.323	1.42	2.98	–	–
